# Assay results: patent US8883782B2, “Spiro-tetracyclic ring compounds as beta-secretase modulators and methods of use” (Amgen Inc., priority 2010, dated 2014)
# pIC50: −log10 of the molar value. Where two headings read alike, the source gives them in different places.
# Assays:
# [1] = test system: Aβ40 in conditioned medium of cells stably expressing Amyloid Precursor Protein (APP); test: In vitro BACE cell-based assay (Aβ40 in conditioned medium, sandwich ELISA); settings: for pIC50: read-out: HEK cell assay
# Procedure, shortened: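 Quantification relied on pAb40/6E10 sandwich ELISA with Europium fluorescence counts, and IC50 was fitted versus concentration.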
# [2] = biological target: Beta Secretase enzyme (BACE) (Homo sapiens, UniProt P56817); test: In vitro enzymatic BACE FRET (fluorescence resonance energy transfer) assay; type: biochemical; settings: for pIC50: average IC50, enzyme assay, read-out: BACE 1 FRET assay
# Procedure, shortened: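 Buffer 0.05 M acetate pH 4.2, 10% DMSO final, 100 uM genapol (sub-CMC); start with 50 nM FRET substrate; 1 h incubation; Tris stop; fluorescence read.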
# [3] = Homo sapiens, HEK293, average IC50
# [4] = Homo sapiens, HEK293, average IC50, HEK cells
# Chain of Beta Secretase enzyme (BACE) (P56817 46-501, species assumed): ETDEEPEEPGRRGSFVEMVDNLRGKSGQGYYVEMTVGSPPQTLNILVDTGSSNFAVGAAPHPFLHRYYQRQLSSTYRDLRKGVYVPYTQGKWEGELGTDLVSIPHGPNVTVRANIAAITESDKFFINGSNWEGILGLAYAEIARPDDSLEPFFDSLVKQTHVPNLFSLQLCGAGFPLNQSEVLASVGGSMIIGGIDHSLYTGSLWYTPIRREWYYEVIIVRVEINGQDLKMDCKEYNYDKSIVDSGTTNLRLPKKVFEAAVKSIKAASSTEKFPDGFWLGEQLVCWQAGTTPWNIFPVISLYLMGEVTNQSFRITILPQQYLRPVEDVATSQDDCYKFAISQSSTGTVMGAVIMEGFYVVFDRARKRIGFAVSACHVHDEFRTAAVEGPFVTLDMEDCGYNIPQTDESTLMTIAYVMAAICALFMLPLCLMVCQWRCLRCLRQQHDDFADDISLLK
Compound,"pIC50 [1, 3]",pIC50 [2],"pIC50 [1, 4]",also measured
"COc1nc(-c2ccnc(F)c2)cc2c1Oc1ccc(-c3cccnc3F)cc1[C@@]21COC(N)=N1 [Example 831, (5S)-7-(2-fluoro-3-pyridinyl)-3-(2-fluoro-4-pyridinyl)-1-methoxyspiro[chromeno[2,3-c]pyridine-5,4′-[1,3]oxazol]-2′-amine]",7.15,8.96,,
"COc1nc(C2=CCOCC2)cc2c1Oc1ccc(-c3cccnc3F)cc1[C@@]21COC(N)=N1 [Example 832, (5S)-3-(3,6-dihydro-2H-pyran-4-yl)-7-(2-fluoro-3-pyridinyl)-1-methoxyspiro[chromeno[2,3-c]pyridine-5,4′-[1,3]oxazol]-2′-amine]",,,,"IC50 ([1]; Homo sapiens, HEK293, read-out: HEK cell assay (uM), average IC50, HEK cell assay): 0.032 µM; IC50 ([2]; BACE 1 FRET assay (uM)): 0.0007 µM"
"COc1nc(C2=CCCOC2)cc2c1Oc1ccc(-c3cccnc3F)cc1[C@@]21COC(N)=N1 [Example 833, (5S)-3-(5,6-dihydro-2H-pyran-3-yl)-7-(2-fluoro-3-pyridinyl)-1-methoxyspiro[chromeno[2,3-c]pyridine-5,4′-[1,3]oxazol]-2′-amine]",7.68,9.15,,
"COc1nc(-c2ccncc2)cc2c1Oc1ccc(-c3cccnc3F)cc1[C@@]21COC(N)=N1 [Example 834, (5S)-7-(2-fluoro-3-pyridinyl)-1-methoxy-3-(4-pyridinyl)spiro[chromeno[2,3-c]pyridine-5,4′-[1,3]oxazol]-2′-amine]",7.15,8.46,,
"CC#Cc1cncc(-c2ccc3c(c2)[C@@]2(COC(N)=N2)c2cc(C4=CCOCC4)nc(OC)c2O3)c1 [Example 835, (5S)-3-(3,6-dihydro-2H-pyran-4-yl)-1-methoxy-7-(5-(1-propyn-1-yl)-3-pyridinyl)spiro[chromeno[2,3-c]pyridine-5,4′-[1,3]oxazol]-2′-amine]",8.15,9.22,,
"CC#Cc1cncc(-c2ccc3c(c2)[C@@]2(COC(N)=N2)c2cc(C4=CCCOC4)nc(OC)c2O3)c1 [Example 836, (5S)-3-(5,6-dihydro-2H-pyran-3-yl)-1-methoxy-7-(5-(1-propyn-1-yl)-3-pyridinyl)spiro[chromeno[2,3-c]pyridine-5,4′-[1,3]oxazol]-2′-amine]",8.40,9.30,,
"CC#Cc1cncc(-c2ccc3c(c2)[C@@]2(COC(N)=N2)c2cc(-c4ccncc4)nc(OC)c2O3)c1 [Example 837, (5S)-1-methoxy-7-(5-(1-propyn-1-yl)-3-pyridinyl)-3-(4-pyridinyl)spiro[chromeno[2,3-c]pyridine-5,4′-[1,3]oxazol]-2′-amine]",8.05,9.15,,
"COc1nc(-c2ccncc2)cc2c1Oc1ccc(-c3cccnc3)cc1[C@@]21COC(N)=N1 [Example 838, (5S)-1-methoxy-7-(3-pyridinyl)-3-(4-pyridinyl)spiro[chromeno[2,3-c]pyridine-5,4′-[1,3]oxazol]-2′-amine]",7.70,8.14,,
"COc1nc(C2=CCOCC2)cc2c1Oc1ccc(-c3cccnc3)cc1[C@@]21COC(N)=N1 [Example 840, (5S)-3-(3,6-dihydro-2H-pyran-4-yl)-1-methoxy-7-(3-pyridinyl)spiro[chromeno[2,3-c]pyridine-5,4′-[1,3]oxazol]-2′-amine]",7.82,8.37,,
"COc1nc(C2=CCCOC2)cc2c1Oc1ccc(-c3cccnc3)cc1[C@@]21COC(N)=N1 [Example 841, (5S)-3-(5,6-dihydro-2H-pyran-3-yl)-1-methoxy-7-(3-pyridinyl)spiro[chromeno[2,3-c]pyridine-5,4′-[1,3]oxazol]-2′-amine]",8.22,8.92,,
"NC1=N[C@@]2(CO1)c1cc(-c3cccnc3F)ccc1Oc1cnc(-c3ccnc(O)c3)cc12 [Example 842, 4-((5S)-2′-amino-7-(2-fluoro-3-pyridinyl)spiro[chromeno[2,3-c]pyridine-5,4′-[1,3]oxazol]-3-yl)-2-pyridinol]",5.59,7.59,,
"COCC#Cc1cncc(-c2ccc3c(c2)C2(COC(N)=N2)c2cc(OC)cc(F)c2O3)c1 (centres unmarked) [Example 843, 4′-fluoro-2′-methoxy-7′-(5-(3-methoxy-1-propyn-1-yl)-3-pyridinyl)spiro[1,3-oxazole-4,9′-xanthen]-2-amine]",7.24,8.06,,
"COc1nc(C2CCCOC2)cc2c1Oc1ccc(-c3cccnc3F)cc1[C@@]21COC(N)=N1 (stereo partly drawn) [Example 844, (5S)-7-(2-fluoro-3-pyridinyl)-1-methoxy-3-(tetrahydro-2H-pyran-3-yl)spiro[chromeno[2,3-c]pyridine-5,4′-[1,3]oxazol]-2′-amine]",7.18,8.17,,
"COc1nc(C2CCCOC2)cc2c1Oc1ccc(-c3cccnc3)cc1[C@@]21COC(N)=N1 (stereo partly drawn) [Example 845, (5S)-1-methoxy-7-(3-pyridinyl)-3-(tetrahydro-2H-pyran-3-yl)spiro[chromeno[2,3-c]pyridine-5,4′-[1,3]oxazol]-2′-amine]",7.15,7.81,,
"COc1nc(F)cc2c1Oc1ccc(-c3cccnc3)cc1[C@]21COC(N)=N1 [Example 847, (5R)-3-fluoro-1-methoxy-7-(3-pyridinyl)spiro[chromeno[2,3-c]pyridine-5,4′-[1,3]oxazol]-2′-amine, (5S)-3-fluoro-1-methoxy-7-(3-pyridinyl)spiro[chromeno[2,3-c]pyridine-5,4′-[1,3]oxazol]-2′-amine]",,9.40,,pIC50 [1]: 8.00
"C=Cc1cc2c(c(F)n1)Oc1ccc(-c3cncc(F)c3)cc1C21COC(N)=N1 (centres unmarked) [Example 848, 3-ethenyl-1-fluoro-7-(5-fluoro-3-pyridinyl)spiro[chromeno[2,3-c]pyridine-5,4′-[1,3]oxazol]-2′-amine]",8.70,9.40,,
"COc1nc(N2CCC(F)(F)CC2)cc2c1Oc1ccc(-c3cccnc3F)cc1[C@@]21COC(N)=N1 [Example 849, (5S)-3-(4,4-difluoro-1-piperidinyl)-7-(2-fluoro-3-pyridinyl)-1-methoxyspiro[chromeno[2,3-c]pyridine-5,4′-[1,3]oxazol]-2′-amine]",,8.38,7.11,
"CCc1cc2c(c(F)n1)Oc1ccc(-c3cncc(F)c3)cc1[C@@]21COC(N)=N1 [Example 850, (5S)-3-ethyl-1-fluoro-7-(5-fluoro-3-pyridinyl)spiro[chromeno[2,3-c]pyridine-5,4′-[1,3]oxazol]-2′-amine]",,8.35,7.28,
"Cc1cc(-c2cc3c(c(F)n2)Oc2ccc(-c4cccnc4F)cc2[C@@]32COC(N)=N2)on1 [Example 851, (5S)-1-fluoro-7-(2-fluoro-3-pyridinyl)-3-(3-methyl-5-isoxazolyl)spiro[chromeno[2,3-c]pyridine-5,4′-[1,3]oxazol]-2′-amine]",,9.10,8.10,
"COc1ncccc1-c1ccc2c(c1)[C@@]1(COC(N)=N1)c1cc(N3CCC(F)(F)CC3)nc(OC)c1O2 [Example 852, (5S)-3-(4,4-difluoro-1-piperidinyl)-1-methoxy-7-(2-methoxy-3-pyridinyl)spiro[chromeno[2,3-c]pyridine-5,4′-[1,3]oxazol]-2′-amine]",,7.03,6.22,
"C=CCN(C)c1cc(F)c2c(c1)[C@]1(COC(N)=N1)c1cc(-c3cccnc3F)ccc1O2 [Example 853, (4S)-4′-fluoro-7′-(2-fluoro-3-pyridinyl)-N~2~′-methyl-N~2~′-2-propen-1-ylspiro[1,3-oxazole-4,9′-xanthene]-2,2′-diamine]",,8.40,7.07,
"CN(c1cc(F)c2c(c1)[C@]1(COC(N)=N1)c1cc(-c3cccnc3F)ccc1O2)C1COC1 [Example 854, (4S)-4′-fluoro-7′-(2-fluoro-3-pyridinyl)-N~2~′-methyl-N~2~′-3-oxetanylspiro[1,3-oxazole-4,9′-xanthene]-2,2′-diamine]",,8.36,7.77,
"NC1=N[C@@]2(CO1)c1cc(-c3cccnc3F)ccc1Oc1c(F)cc(N3CC4(CCCO4)C3)cc12 [Example 855, (4S)-4′-fluoro-7′-(2-fluoro-3-pyridinyl)-2′-(5-oxa-2-azaspiro[3.4]oct-2-yl)spiro[1,3-oxazole-4,9′-xanthen]-2-amine]",,9.15,8.70,
"NC1=N[C@@]2(CO1)c1cc(-c3cccnc3F)ccc1Oc1c(F)cc(N3CC4(CCCOC4)C3)cc12 [Example 856, (4S)-4′-fluoro-7′-(2-fluoro-3-pyridinyl)-2′-(6-oxa-2-azaspiro[3.5]non-2-yl)spiro[1,3-oxazole-4,9′-xanthen]-2-amine]",,9.22,8.40,
"NC1=N[C@@]2(CO1)c1cc(-c3c(F)ccnc3F)ccc1Oc1c(F)cc(-c3ncccn3)cc12 [Example 858, (4S)-7′-(2,4-difluoro-3-pyridinyl)-4′-fluoro-2′-(2-pyrimidinyl)spiro[1,3-oxazole-4,9′-xanthen]-2-amine]",,9.30,7.74,
"Cn1cc(-c2cc(F)c3c(c2)[C@]2(COC(N)=N2)c2cc(-c4c(F)ccnc4F)ccc2O3)cn1 [Example 859, (4S)-7′-(2,4-difluoro-3-pyridinyl)-4′-fluoro-2′-(1-methyl-1H-pyrazol-4-yl)spiro[1,3-oxazole-4,9′-xanthen]-2-amine]",,9.30,7.96,
"NC1=N[C@@]2(CO1)c1cc(-c3cccnc3)c(F)cc1Oc1c(F)cc(N3CCOCC3)cc12 [Example 861, (4S)-3′,5′-difluoro-7′-(4-morpholinyl)-2′-(3-pyridinyl)spiro[1,3-oxazole-4,9′-xanthen]-2-amine]",,9.00,7.82,
"CC(C)(C#N)COc1cc(F)c2c(c1)[C@]1(COC(N)=N1)c1cc(-c3cccnc3F)c(F)cc1O2 [Example 862, 3-(((4S)-2-amino-4′,6′-difluoro-7′-(2-fluoro-3-pyridinyl)spiro[1,3-oxazole-4,9′-xanthen]-2′-yl)oxy)-2,2-dimethylpropanenitrile]",,9.52,7.96,
